According to ChEMBL document CHEMBL1201862, “PubChem BioAssay data set” (2004):
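Growth conditions: 96-well plates. Treatment: test compound, 48 hours, 5 concentrations. Analysis: linear interpolation between bracketing concentrations; unreached endpoints set to highest concentration. Abbreviation: GI50, concentration required for 50% inhibition of growth.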 Activity calls are given as the source filed them. Cut-off read from the data, not from the text of the source: active = GI50 up to about 1.1 µM and inactive = higher.

Columns and labels:
Assay in all cases: NCI-60 cell line screen, 48 h
A498 = test system: A498
EKVX = test system: EKVX
HOP-62 = test system: HOP-62
LOX IMVI = test system: LOX IMVI
M14 = test system: M14
Malme-3M = test system: Malme-3M
NCI-H522 = test system: NCI-H522
OVCAR-3 = test system: OVCAR-3
OVCAR-4 = test system: OVCAR-4
OVCAR-5 = test system: OVCAR-5
OVCAR-8 = test system: OVCAR-8
RPMI-8226 = test system: RPMI-8226
SF-539 = test system: SF-539
SK-MEL-2 = test system: SK-MEL-2
SK-OV-3 = test system: SK-OV-3
SR = test system: SR
TK-10 = test system: TK-10
UACC-257 = test system: UACC-257
MCF7 = test system: MCF7
NCI/ADR-RES = test system: NCI/ADR-RES

| SMILES | GI50 (A498) | GI50 (EKVX) | GI50 (HOP-62) | GI50 (LOX IMVI) | GI50 (M14) | GI50 (Malme-3M) | GI50 (NCI-H522) | GI50 (OVCAR-3) | GI50 (OVCAR-4) | GI50 (OVCAR-5) | GI50 (OVCAR-8) | GI50 (RPMI-8226) | GI50 (SF-539) | GI50 (SK-MEL-2) | GI50 (SK-OV-3) | GI50 (SR) | GI50 (TK-10) | GI50 (UACC-257) | GI50 (MCF7) | GI50 (NCI/ADR-RES) |
| --- | --- | --- | --- | --- | --- | --- | --- | --- | --- | --- | --- | --- | --- | --- | --- | --- | --- | --- | --- | --- |
| NC(=O)COC(=O)c1c(Cl)nc2sccn12 | > 100 µM (inactive) | > 100 µM (inactive) | > 100 µM (inactive) | > 75.5 µM (inactive) | > 100 µM (inactive) | > 100 µM (inactive) | > 100 µM (inactive) | > 43.7 µM (inactive) | > 100 µM (inactive) | > 100 µM (inactive) | > 100 µM (inactive) | > 37 µM (inactive) | > 100 µM (inactive) | > 100 µM (inactive) | > 100 µM (inactive) | 33.8 µM (inactive) | > 100 µM (inactive) | > 100 µM (inactive) | – | – |
| CCC1OCCN1C(C)C (stereo unspecified) | > 100 µM (inactive) | 26.2 µM (inactive) | – | > 100 µM (inactive) | – | 65.2 µM (inactive) | 85.5 µM (inactive) | – | – | > 100 µM (inactive) | > 100 µM (inactive) | 60 µM (inactive) | > 100 µM (inactive) | > 100 µM (inactive) | > 100 µM (inactive) | > 100 µM (inactive) | 42 µM (inactive) | 97.5 µM (inactive) | – | – |
| N#Cc1ccccc1Nc1ccccc1S | 53.7 µM (inactive) | 57.7 µM (inactive) | 46.7 µM (inactive) | 17.5 µM (inactive) | – | 20.5 µM (inactive) | – | – | 37.9 µM (inactive) | 29.4 µM (inactive) | 31.6 µM (inactive) | – | 17.7 µM (inactive) | 56.4 µM (inactive) | 57.1 µM (inactive) | 19.3 µM (inactive) | > 100 µM (inactive) | 57.3 µM (inactive) | – | – |
| COC1C(O)C(C)OC(OC2C(Oc3cccc4c(O)c5c(=O)oc6ccc(C)c7c(=O)oc(c34)c5c67)OC(C)C3O[C@H](c4ccccc4)OC32)C1O (stereo partly specified) | 0.0731 µM (active) | 1.24 µM (inactive) | 0.0441 µM (active) | – | 0.851 µM (active) | 0.845 µM (active) | – | 0.195 µM (active) | 1.3 µM (inactive) | 1.48 µM (inactive) | 0.034 µM (active) | 0.0796 µM (active) | 0.0746 µM (active) | 0.824 µM (active) | 0.533 µM (active) | – | 1.06 µM (active) | – | 0.084 µM (active) | 2.12 µM (inactive) |
| COc1ccc(OC)c2c(C(=O)O)c(C(C)c3ccccc3)ccc12 (stereo unspecified) | > 100 µM (inactive) | > 100 µM (inactive) | > 100 µM (inactive) | > 100 µM (inactive) | > 100 µM (inactive) | > 100 µM (inactive) | > 100 µM (inactive) | > 100 µM (inactive) | > 100 µM (inactive) | > 100 µM (inactive) | > 100 µM (inactive) | – | – | > 100 µM (inactive) | > 100 µM (inactive) | > 100 µM (inactive) | > 100 µM (inactive) | > 100 µM (inactive) | – | – |
| COc1ccc2oc3cccc(NCCN(C)C)c3c(=O)c2c1 | 19.1 µM (inactive) | 15 µM (inactive) | 15.2 µM (inactive) | 10.6 µM (inactive) | 15.8 µM (inactive) | 15.6 µM (inactive) | – | 14.7 µM (inactive) | 12.7 µM (inactive) | 12.3 µM (inactive) | 11.1 µM (inactive) | 12.6 µM (inactive) | 14.3 µM (inactive) | 16.5 µM (inactive) | 15.2 µM (inactive) | 8.85 µM (inactive) | 14.8 µM (inactive) | 16.3 µM (inactive) | – | – |
| COC(=O)C(C(=O)C(=O)Nc1ccc(Br)cc1)c1nc2ccc(Cl)cc2nc1O (stereo unspecified) | > 100 µM (inactive) | > 100 µM (inactive) | > 100 µM (inactive) | > 76.7 µM (inactive) | > 100 µM (inactive) | > 100 µM (inactive) | > 100 µM (inactive) | > 100 µM (inactive) | > 34.5 µM (inactive) | > 100 µM (inactive) | > 100 µM (inactive) | > 100 µM (inactive) | > 100 µM (inactive) | > 100 µM (inactive) | > 100 µM (inactive) | > 100 µM (inactive) | > 100 µM (inactive) | > 100 µM (inactive) | – | – |
| CCN(CC)CCNc1ccc2nc(C)n3c4ccc(O)cc4c(=O)c1c23 | 2.69 µM (inactive) | – | 0.975 µM (active) | 0.71 µM (active) | 2.99 µM (inactive) | 3.56 µM (inactive) | 0.179 µM (active) | 1.97 µM (inactive) | 0.525 µM (active) | 0.479 µM (active) | 0.371 µM (active) | 2.16 µM (inactive) | 1.79 µM (inactive) | 7.24 µM (inactive) | 1.14 µM (inactive) | 0.049 µM (active) | – | 8.63 µM (inactive) | – | – |
| O=C(O)/C(Cl)=C(\Cl)C(=O)Nc1ccc(Cl)c(Cl)c1Cl | 28.8 µM (inactive) | 22.6 µM (inactive) | 29.5 µM (inactive) | 17.4 µM (inactive) | 18.2 µM (inactive) | 19.3 µM (inactive) | 10.9 µM (inactive) | 19 µM (inactive) | 19.4 µM (inactive) | 18.2 µM (inactive) | – | 28.9 µM (inactive) | 19.1 µM (inactive) | 18.2 µM (inactive) | 19.7 µM (inactive) | 25.1 µM (inactive) | 16.8 µM (inactive) | 18.5 µM (inactive) | – | – |
